Reference: ChEMBL document CHEMBL1142691, “Solid-phase total synthesis of kahalalide A and related analogues” (2005)
In brackets after ≈: the same amount, converted by molar mass.

Assays:
[1] = system: Mycobacterium tuberculosis; assay: Minimum inhibitory concentration against Mycobacterium tuberculosis; format: functional
[2] = system: Mycobacterium tuberculosis; assay: Concentration to inhibit of the growth of Mycobacterium tuberculosis at 12.5 ug/ml; format: functional

| SMILES | MIC [1] [µg/mL] | inhibition at 12.5 µg/mL [2] [%] |
| --- | --- | --- |
| CCC(C)C(=O)N[C@H](Cc1ccccc1)C(=O)N[C@@H]1C(=O)N[C@H](CC(C)C)C(=O)N[C@H](Cc2ccccc2)C(=O)N[C@H](CC(C)C)C(=O)N[C@@H]([C@@H](C)O)C(=O)N[C@@H](CO)C(=O)O[C@@H]1C (some centres undefined) | 64 (≈ 71.6 µM) | 83 |
| CCCCCC(=O)N[C@H](Cc1ccccc1)C(=O)N[C@@H]1C(=O)N[C@H](CC(C)C)C(=O)N[C@H](Cc2ccccc2)C(=O)N[C@H](CC(C)C)C(=O)N[C@@H]([C@@H](C)O)C(=O)N[C@@H](CO)C(=O)O[C@@H]1C | 32 (≈ 35.2 µM) |  |
| CC[C@H](C)C(=O)N[C@H](Cc1ccccc1)C(=O)N[C@@H]1C(=O)N[C@H](CC(C)C)C(=O)N[C@H](Cc2ccccc2)C(=O)N[C@H](CC(C)C)C(=O)N[C@@H]([C@@H](C)O)C(=O)N[C@@H](CO)C(=O)O[C@@H]1C | 64 (≈ 71.6 µM) |  |
